Results reported in patent US11077090B2, “Compounds and compositions and uses thereof” (Sunovion Pharmaceuticals Inc., priority 2016, dated 2021).

Test system: Male C57Bl/6J mice
Experiment: Marble burying test
Type: in vivo
Parameters: key: −: No reduction in number of marbles buried; +: Significant reduction in number of marbles buried (P < 0.05 vs vehicle)
Details: 1 mg/kg (i.p.)
Protocol: The marble burying assay is used to evaluate the anxiolytic activity of a test compound. After placement in a novel cage containing glass marbles, mice will bury the marbles. Acute administration of anxiolytic agents, as well as antidepressants, decrease this activity at non-sedating doses. Male C57Bl/6J mice from Jackson Laboratories were used in this study and were acclimatized to the experimental room for at least 1 hour prior to testing. Mice (n=10 per group) were administered sterile water or test compound intraperitoneally (i.p.) or orally by gavage (p.o.), or the positive control chlordiazepoxide (15 mg/kg, i.p.), in 10 mL/kg injection volumes, and returned to their home cages for a 30-minute pretreatment period. The mice were then placed individually in clean cages, containing hard wood bedding and twenty black marbles placed in spaced rows of 4×5. After a 30-minute test session, the number of buried marbles was counted. A marble was considered buried if it was pushed at least two thirds into the bedding. Locomotor activity was monitored by measuring the distance traveled using an overhead camera and Video Tracker Software (ViewPoint Life Sciences Software, France). A reduction in the number of marbles buried relative to the vehicle condition indicates an anxiolytic drug-like effect.

| Compound | Marbles Buried |
| --- | --- |
| C[C@@H]1OCc2cccc(Cl)c2[C@H]1N (single isomer, unassigned) [Compound 160] | − |
| CC[C@@H]1OCc2ccccc2[C@H]1N (single isomer, unassigned) [Compound 195] | − |

Same assay, conditions: 3 mg/kg (i.p.)

| Compound | Marbles Buried |
| --- | --- |
| C[C@@H]1OCc2cccc(Cl)c2[C@H]1N (single isomer, unassigned) [Example 160] | − |
| CC[C@@H]1OCc2ccccc2[C@H]1N (single isomer, unassigned) [Example 195] | − |

Same assay, conditions: 10 mg/kg (i.p.)

| Compound | Marbles Buried |
| --- | --- |
| C[C@@H]1OCc2cccc(Cl)c2[C@H]1N (single isomer, unassigned) [Example 160] | + |
| CC[C@@H]1OCc2ccccc2[C@H]1N (single isomer, unassigned) [Example 195] | + |

Test system: compound-treated mice
Experiment: Neuropharmacological assay (SmartCube): behavioral activity signature and minimal effective dose
Type: in vivo
Details: MED = dose having 50% or more total activity
Summary of the method: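 Mice dosed i.p. 15 min before test, compound in N-methyl-2-pyrrolidone/PEG/propylene glycol, 3 doses; video-captured behavior matched to reference-drug signatures, giving per-class probabilities at most efficacious dose. MED from doses typically 0.3–30 mpk, defined as lowest dose with ≥50% total activity.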

| Compound | Potency: minimal effective dose (MED), binned |
| --- | --- |
| C[C@@H]1OCc2cccc(Cl)c2[C@H]1N (single isomer, unassigned) [Example 160] | A (≤3 mpk) |
| CC[C@@H]1OCc2ccccc2[C@H]1N (single isomer, unassigned) [Example 195] | A (≤3 mpk) |
| cis-3-Isopropylisochroman-4-amine hydrochloride [Example 273] | A (≤3 mpk) |

Same assay, conditions: Mus musculus, ip, MED = dose having 50% or more total activity, read-out: Potency: minimal effective dose (MED), binned

| Compound | minimal effective dose [mg/kg] |
| --- | --- |
| CCN(C)C(=O)Oc1ccc2c(c1)[C@H](N)[C@@H](C)OC2.Cl [Example 282] | > 30 |
| CCN(C)C(=O)Oc1ccc2c(c1)COCC2N(C)C.Cl (stereo not shown) [Example 283] | 3 to 10 |
| CCN(C)C(=O)Oc1ccc2c(c1)C(N(C)C)COC2.Cl (stereo not shown) [Example 284] | 10 to 30 |
| CCN(C)C(=O)Oc1ccc2c(c1)CO[C@@H](C)[C@H]2N(C)C.Cl [Example 285] | 3 to 10 |
| CCN(C)C(=O)Oc1ccc2c(c1)CO[C@H](C)[C@H]2N(C)C.Cl [Example 286] | 10 to 30 |
| CCN(C)C(=O)Oc1ccc2c(c1)[C@H](N(C)C)[C@H](C)OC2.Cl [Example 287] | > 30 |
| CCN(C)C(=O)Oc1ccc2c(c1)[C@H](N(C)C)[C@@H](C)OC2.Cl [Example 288] | > 30 |

Same assay, conditions: i.p. 15 min before test, most efficacious dose(s)

| Compound | AD: ADHD (probability of activity signature) | AG: analgesic (probability of activity signature) | AX: anxiolytic (probability of activity signature) | CE: cognitive enhancer (probability of activity signature) | DP: anti-depressant (probability of activity signature) | MS: mood stabilizer (probability of activity signature) | PS: anti-psychotic (probability of activity signature) | SD: sedative hypnotic (probability of activity signature) | UN: uncharacterized CNS activity (probability of activity signature) |
| --- | --- | --- | --- | --- | --- | --- | --- | --- | --- |
| C[C@@H]1OCc2cccc(Cl)c2[C@H]1N (single isomer, unassigned) [Example 160] | + (LOQ ≤ + <5%) | ++ (5% ≤ ++ <25%) | ++ (5% ≤ ++ <25%) | ++ (5% ≤ ++ <25%) | + (LOQ ≤ + <5%) | + (LOQ ≤ + <5%) | ++ (5% ≤ ++ <25%) | + (LOQ ≤ + <5%) | +++ (25% ≤ +++ <50%) |
| CC[C@@H]1OCc2ccccc2[C@H]1N (single isomer, unassigned) [Example 195] | + (LOQ ≤ + <5%) | ++ (5% ≤ ++ <25%) | ++ (5% ≤ ++ <25%) | ++ (5% ≤ ++ <25%) | ++ (5% ≤ ++ <25%) | + (LOQ ≤ + <5%) | ++ (5% ≤ ++ <25%) | ++ (5% ≤ ++ <25%) | ++++ (50% ≤ ++++) |
| CCN(C)C(=O)Oc1ccc2c(c1)[C@H](N)[C@@H](C)OC2.Cl [Example 282] | + (LOQ ≤ + <5%) | + (LOQ ≤ + <5%) | + (LOQ ≤ + <5%) | + (LOQ ≤ + <5%) | + (LOQ ≤ + <5%) | + (LOQ ≤ + <5%) | + (LOQ ≤ + <5%) | ++ (5% ≤ ++ <25%) | + (LOQ ≤ + <5%) |
| CCN(C)C(=O)Oc1ccc2c(c1)COCC2N(C)C.Cl (stereo not shown) [Example 283] | ++ (5% ≤ ++ <25%) | + (LOQ ≤ + <5%) | ++ (5% ≤ ++ <25%) | + (LOQ ≤ + <5%) | ++ (5% ≤ ++ <25%) | +++ (25% ≤ +++ <50%) | ++ (5% ≤ ++ <25%) | ++ (5% ≤ ++ <25%) | ++ (5% ≤ ++ <25%) |
| CCN(C)C(=O)Oc1ccc2c(c1)C(N(C)C)COC2.Cl (stereo not shown) [Example 284] | + (LOQ ≤ + <5%) | + (LOQ ≤ + <5%) | ++ (5% ≤ ++ <25%) | + (LOQ ≤ + <5%) | ++ (5% ≤ ++ <25%) | +++ (25% ≤ +++ <50%) | ++ (5% ≤ ++ <25%) | ++ (5% ≤ ++ <25%) | + (LOQ ≤ + <5%) |
| CCN(C)C(=O)Oc1ccc2c(c1)CO[C@@H](C)[C@H]2N(C)C.Cl [Example 285] | ++ (5% ≤ ++ <25%) | + (LOQ ≤ + <5%) | ++ (5% ≤ ++ <25%) | + (LOQ ≤ + <5%) | ++ (5% ≤ ++ <25%) | ++++ (50% ≤ ++++) | ++++ (50% ≤ ++++) | + (LOQ ≤ + <5%) | ++ (5% ≤ ++ <25%) |
| CCN(C)C(=O)Oc1ccc2c(c1)CO[C@H](C)[C@H]2N(C)C.Cl [Example 286] | + (LOQ ≤ + <5%) | + (LOQ ≤ + <5%) | + (LOQ ≤ + <5%) | + (LOQ ≤ + <5%) | ++ (5% ≤ ++ <25%) | ++ (5% ≤ ++ <25%) | + (LOQ ≤ + <5%) | ++ (5% ≤ ++ <25%) | ++ (5% ≤ ++ <25%) |
| CCN(C)C(=O)Oc1ccc2c(c1)[C@H](N(C)C)[C@H](C)OC2.Cl [Example 287] | + (LOQ ≤ + <5%) | + (LOQ ≤ + <5%) | + (LOQ ≤ + <5%) | + (LOQ ≤ + <5%) | + (LOQ ≤ + <5%) | + (LOQ ≤ + <5%) | + (LOQ ≤ + <5%) | ++ (5% ≤ ++ <25%) | + (LOQ ≤ + <5%) |
| CCN(C)C(=O)Oc1ccc2c(c1)[C@H](N(C)C)[C@@H](C)OC2.Cl [Example 288] | + (LOQ ≤ + <5%) | + (LOQ ≤ + <5%) | + (LOQ ≤ + <5%) | + (LOQ ≤ + <5%) | ++ (5% ≤ ++ <25%) | + (LOQ ≤ + <5%) | + (LOQ ≤ + <5%) | ++ (5% ≤ ++ <25%) | + (LOQ ≤ + <5%) |
| cis-3-Isopropylisochroman-4-amine hydrochloride [Example 273] | + (LOQ ≤ + <5%) | ++ (5% ≤ ++ <25%) | + (LOQ ≤ + <5%) | + (LOQ ≤ + <5%) | ++ (5% ≤ ++ <25%) | ++ (5% ≤ ++ <25%) | + (LOQ ≤ + <5%) | +++ (25% ≤ +++ <50%) | ++ (5% ≤ ++ <25%) |
